# Data from patent US9962395B2, “Compositions and methods for maintaining cognitive function” (The Regents of the University of California, priority 2014, dated 2018).
# Entries after “also recorded” stand apart in the source; their conditions may differ.
# Experiments:
# Assay type in all cases: in vivo
# [1] = system: hippocampal CA1 of ovariectomized (OVX) mice; test: Hippocampal slice electrophysiology: long term potentiation (LTP) in CA1 after high-frequency stimulation
# Experimental: FIGS. 1A and 1B. Estriol partially recovers long term potentiation (LTP) in the hippocampal CA1 of ovariectomized (OVX) mice. (A) LTP induced by 2×100 Hz HFS in sham-placebo treated mice (open squares, n=4) is reduced in OVX-placebo treated mice (gray circles, n=4). Estriol-treated OVX mice show improved synaptic strength (black circles, n=4). Representative traces are superimposed average fEPSPs recorded at baseline and during final 15 minutes after HFS. Estriol (5 mg) or placebo was administered as subcutaneous pellets. Calibration: 2 mV, 5 ms. (B) Summary showing fEPSP slopes during baseline (Pre) and in final 15 minutes after HFS (Post). […] Statistics RM-ANOVA, Tukey's multiple comparison test, ****p≤0.0001.
# Electrophysiology to assess excitatory synaptic transmission is an accepted biomarker for cognitive function in mice, which specifically tests long term potentiation (LTP) during stimulation of the region of the brain responsible for memory, the CA1 region of the hippocampus. Hippocampal electrophysiology was examined in slices from sham surgical mice treated with placebo (SP), ovariectomized mice treated with placebo (OP), and ovariectomized mice treated with estriol (OE). […] LTP was reduced in OP mice as compared to SP mice, consistent with the known deleterious effects upon loss of peripheral estrogen on neurotransmission (FIG. 1).
# [2] = system: post-menopausal female patients; test: Randomized, double-blind, placebo-controlled human clinical trial of estriol and norethindrone in menopause; conditions: oral estriol 2, 4, 6 or 8 mg/day, 36-month treatment, women
# Experimental: This example describes a randomized, double-blind, placebo-controlled human clinical trial for the treatment of menopause estriol and norethindrone.
# Women who are taking hormone replacement therapy are excluded from the trial.
# Patients are randomized to oral estriol (2 mg/day, 4 mg/day, 6 mg/day, or 8 mg/day) or to placebo for a 36-month treatment duration. Gynecologists examine the patients before, during, and after the study. Each patient is examined at three- to six-month intervals during the trial. Patients also undergo mammograms before and after the study. In addition, at baseline, 3 months, 6 months, 12 months, 18 months, 24, months, 30 months, and 36 months, the investigators measure participants' estriol levels, and assess cognitive abilities.
# A total of 100 patients receive estriol, and 100 patients receive placebo. Baseline characteristics are similar in both patient groups. Participants' mean age at entry is approximately 52 years. […] To ensure breast and uterus safety, every three months the patients take norethindrone 0.7 mg once a day for 14 days.
# PSD-95 = PSD-95 synaptic protein expression in dorsal hippocampus (western blot, immunofluorescence); conditions: OVX mice treated with estriol, n=2
# Excerpt: FIG. 4 consists of two panels, labeled panels (A) and (B). Estriol partially recovers synaptic levels of PSD-95 in the dorsal hippocampus following OVX. Panel A: levels of PSD-95 are decreased in the dorsal hippocampus in OVX-Placebo mice (n=2) compared to Sham-Placebo mice (n=2). […] Scale bar=20 μm, 40× objective.
# Expression of PSD-95 in the CA1 stratum radiatum was shown by both immunofluorescence and by western blot (FIG. 4)
# [3] = system: ovariectomized female C57BL/6 mice; test: Morris water maze (spatial memory) in ovariectomized mice
# Experimental: (§1) FIG. 5. Peripheral estrogens improve performance on the Morris water maze via ERP expressed on neurons. Healthy female C57BL/6 were tested for cognitive performance (spatial memory) using the Morris water maze, whereby mice learn to spend more time in a target quadrant (TQ) as compared to three other quadrants (OQ). […] (Bottom graph) To determine (a) whether ER beta is required for proper learning and, more specifically, (b) whether ER beta expression in neurons is required for learning, mice were generated that had ER beta conditionally knocked out using CreLox technology, with Cre driving the knock out in neurons via the neuron-specific enolase (NSE) promoter. […] (***p≤0.001, ANOVA-Sidak's posttest). […] The dashed line on the graphs indicates the time expected to be spent in a quadrant by random chance in the absence of learning (25%).
# Ovariectomized mice (OVX-Placebo) display worse performance in the Morris water maze than control mice (Sham-Placebo) (FIG. 5, top panel). The administration of an estriol improves performance in ovariectomized mice (OVX-Estriol) (FIG. 5, top panel).
# NSE-Cre:ERβ^fl/fl mice = test: Morris water maze in mice with neuronal conditional knockout of ER beta; conditions: OVX estriol-treated NSE-Cre:ERβ^fl/fl mice, n=7
# Experimental: as §1
# Thus, estrogen receptor β ligands can likely protect against neuronal defects and disability during neurodegenerative processes. This is consistent with the observation that estriol improved performance since it is a known that estriol is an agonist for various estrogen receptors including estrogen receptor β.
smiles,measurement,setting,value
C[C@]12CC[C@@H]3c4ccc(O)cc4CC[C@H]3[C@@H]1C[C@@H](O)[C@@H]2O [estriol],LTP versus OVX-placebo mice (in words),"[1]; OVX mice treated with estriol for 9 weeks, RM-ANOVA, Tukey, p≤0.0001",significantly improved over OP mice; also recorded: significant improvement in LTP deficit from ovariectomy
same,"fEPSP slope in final 15 minutes after HFS (Post), Mean±SE post-HFS","[1]; OVX mice, estriol 5 mg subcutaneous pellet, 2×100 Hz HFS, n=4, sham-placebo 159.6±0.2, OVX-placebo 141.6±0.5",150.4±0.4
same,Estriol levels in serum,[2],in early pregnancy range
same,PSD-95 levels in dorsal hippocampus / CA1 stratum radiatum versus OVX-placebo,PSD-95,increased expression of PSD-95; also recorded: elevated PSD-95 levels
same,"% duration in target quadrant (TQ) versus other quadrants (OQ), learning","[3]; OVX mice, 20 days of 5 mg, 90 day release estriol implants, n=7, p≤0.01",significant preference for the TQ over OQ; also recorded: ability to learn may be restored
same,average latency to platform during acquisition training,"[3]; Sham-Placebo vs OVX-Placebo vs OVX-Estriol, 3 trials/mouse/day, RM-ANOVA p>0.05",no difference was observed
same,"% duration in TQ versus OQ, estriol rescue of learning in ER beta neuronal knockout",NSE-Cre:ERβ^fl/fl mice,estrogen-mediated improvement is lost; also recorded: the ability of estriol to rescue learning is mediated by ER beta expression in neurons
